Laboratory results as given in patent publication US8618289B2 (Ambit Biosciences Corporation, priority 2008, dated 2013).
Read-outs that look alike come from different tables or passages of the source.

Columns and labels:
RAF kinases [1] = target: T1, RAF kinases (Homo sapiens, UniProt P15056, V600E); details: read-out: BRAF V600E Kd; BRAF V600E
RAF kinases [2] = target: T2, RAF kinases (Homo sapiens, UniProt P04049); details: read-out: RAF1 Kd; RAF1
A375 cells = experiment: cells; details: Homo sapiens, A-375, read-out: A375 Viability EC50
RAF kinases [3] = target: RAF kinases (Homo sapiens, UniProt P15056); experiment: biochemical
[4] = system: MEK1 phosphorylation in the A375 human melanoma cell line; experiment: cells; details: A-375, read-out: pMEK IC50
Protocol: A375 cells (from American Type Culture Collection) were plated at 50,000 cells per well in DMEM (Mediatech) with 10% fetal bovine serum (Omega Scientific) into a 96 well plate and incubated overnight in a 37° C. incubator with 10% CO2. The cells were then washed with PBS and the medium replaced with 0.5% FBS for incubation overnight. […] The cells were incubated with compound or control for two hours at 37° C. The compound solution was aspirated off and the cells washed with cold PBS. […] The plate was centrifuged for 30 minutes to pellet out the cell debris. The cleared lysates were transferred to a 96-well Nunc plate and the ELISA protocol described by the manufacturer in Catalog #KHO0321 or KHO0291 was followed.

RAF kinases [5] = target: T1, RAF kinases; experiment: biochemical
RAF kinases [6] = target: T2, RAF kinases; experiment: biochemical

T1 sequence (P15056 whole entry V600E): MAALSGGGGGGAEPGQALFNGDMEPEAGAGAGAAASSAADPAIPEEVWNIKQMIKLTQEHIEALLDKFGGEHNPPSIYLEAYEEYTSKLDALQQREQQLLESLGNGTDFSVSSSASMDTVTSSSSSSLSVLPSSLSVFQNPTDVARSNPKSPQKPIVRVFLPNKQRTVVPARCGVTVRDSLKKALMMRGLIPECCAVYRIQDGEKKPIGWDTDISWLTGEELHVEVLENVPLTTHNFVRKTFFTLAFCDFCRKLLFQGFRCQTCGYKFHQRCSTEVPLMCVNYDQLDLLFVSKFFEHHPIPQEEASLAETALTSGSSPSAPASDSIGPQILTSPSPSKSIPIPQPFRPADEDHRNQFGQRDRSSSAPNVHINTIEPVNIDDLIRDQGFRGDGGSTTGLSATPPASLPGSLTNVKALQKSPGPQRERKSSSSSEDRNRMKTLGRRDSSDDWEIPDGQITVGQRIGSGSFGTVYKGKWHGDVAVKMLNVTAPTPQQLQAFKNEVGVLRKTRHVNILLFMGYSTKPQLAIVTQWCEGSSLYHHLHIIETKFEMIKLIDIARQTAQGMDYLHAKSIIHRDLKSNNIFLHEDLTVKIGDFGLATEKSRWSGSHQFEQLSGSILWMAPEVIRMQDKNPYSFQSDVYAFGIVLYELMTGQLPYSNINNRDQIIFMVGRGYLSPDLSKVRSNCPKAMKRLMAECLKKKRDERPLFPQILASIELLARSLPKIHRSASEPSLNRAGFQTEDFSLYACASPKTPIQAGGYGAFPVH
Sequence of RAF kinases (Homo sapiens, UniProt P15056) (P15056 whole entry): as the sequence (P15056 whole entry V600E) above, with E600V counted along it
T2 sequence (P04049 whole entry): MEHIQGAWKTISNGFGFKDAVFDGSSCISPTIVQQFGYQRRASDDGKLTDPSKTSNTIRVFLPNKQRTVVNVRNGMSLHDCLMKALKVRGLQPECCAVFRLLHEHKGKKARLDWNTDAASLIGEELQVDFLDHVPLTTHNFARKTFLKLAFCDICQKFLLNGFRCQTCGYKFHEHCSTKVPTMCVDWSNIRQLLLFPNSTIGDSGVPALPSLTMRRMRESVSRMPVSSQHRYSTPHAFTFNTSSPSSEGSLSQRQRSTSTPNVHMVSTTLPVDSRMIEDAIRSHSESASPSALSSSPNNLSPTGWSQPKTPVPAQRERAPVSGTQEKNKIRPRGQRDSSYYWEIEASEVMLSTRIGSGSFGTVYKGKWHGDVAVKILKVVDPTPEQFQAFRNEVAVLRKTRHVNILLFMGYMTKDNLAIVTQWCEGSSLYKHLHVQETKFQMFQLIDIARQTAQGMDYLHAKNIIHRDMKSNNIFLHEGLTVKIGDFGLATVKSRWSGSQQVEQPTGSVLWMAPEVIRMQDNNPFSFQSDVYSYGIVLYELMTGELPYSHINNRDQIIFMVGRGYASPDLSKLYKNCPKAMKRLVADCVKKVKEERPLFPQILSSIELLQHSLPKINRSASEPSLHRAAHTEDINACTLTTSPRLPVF

Row | Kd (RAF kinases [1]) [nM] | Kd (RAF kinases [2]) [nM] | SMILES | EC50 (A375 cells) [nM] | Kd (RAF kinases [3]) [nM] | IC50 [4] [nM] | Kd (RAF kinases [5]) [nM] | Kd (RAF kinases [6]) [nM]
1 | < 250 | < 250 | COCCOc1cc2ncnc(Sc3cccc(NC(=O)Nc4cc(C5CCCC5)on4)c3)c2cc1OC [Ex 235, 1-(5-cyclopentylisoxazol-3-yl)-3-(3-(6-methoxy-7-(2-methoxyethoxy)quinazolin-4-ylthio)phenyl)urea] | > 1000 | 250 to 500 | 250 to 500 |  | 
2 | < 250 | < 250 | COCCOc1cc2ncnc(Oc3cccc(NC(=O)Nc4cc(C(F)(F)F)no4)c3)c2cc1OC [Ex 229, 1-(3-(6-methoxy-7-(2-methoxyethoxy)quinazolin-4-yloxy)phenyl)-3-(3-(trifluoromethyl)isoxazol-5-yl)urea] | > 1000 | 250 to 500 | > 1000 |  | 
3 |  |  | COCCOc1cc2ncnc(Oc3cccc(NC(=O)Nc4cc(-c5ccccc5)on4)c3)c2cc1OC [Ex 203, 1-(3-(6-methoxy-7-(2-methoxyethoxy)quinazolin-4-yloxy)phenyl)-3-(5-phenylisoxazol-3-yl)urea] | > 1000 | > 1000 | > 1000 | > 1000 | > 1000
4 |  |  | COc1cc2ncnc(Oc3cccc(NC(=O)Nc4cc(C(C)(C)F)no4)c3)c2cc1OCCCS(C)(=O)=O [Ex 42, 1-(3-(2-fluoropropan-2-yl)isoxazol-5-yl)-3-(3-(7-methoxy-6-(3-(methylsulfonyl)propoxy)quinazolin-4-yloxy)phenyl)urea] | 500 to 1000 | < 250 | 250 to 500 | < 250 | < 250
5 | < 250 | < 250 | COc1cc2ncnc(Oc3cccc(NC(=O)Nc4cc(C(F)(F)F)no4)c3)c2cc1OC [Ex 254, 1-(3-(6,7-dimethoxyquinazolin-4-yloxy)phenyl)-3-(3-(trifluoromethyl)isoxazol-5-yl)urea] | > 1000 | 250 to 500 | > 1000 |  | 
6 |  |  | COCCOc1cc2ncnc(Oc3cccc(NC(=O)Nc4cc(C(C)(C)C)nn4C)c3)c2cc1OC [Ex 209, 1-(3-tert-butyl-1-methyl-1H-pyrazol-5-yl)-3-(3-(6-methoxy-7-(2-methoxyethoxy)quinazolin-4-yloxy)phenyl)urea] | > 1000 | > 1000 | 500 to 1000 | 250 to 500 | > 1000
7 |  |  | CCOc1cc2ncnc(Sc3cccc(NC(=O)Nc4cc(C(C)(C)C)on4)c3)c2cc1OC [Ex 50, 1-(5-tert-butylisoxazol-3-yl)-3-[3-(7-ethoxy-6-methoxyquinazolin-4-ylthio)phenyl]urea] | > 1000 | 500 to 1000 | 250 to 500 | 250 to 500 | 250 to 500
8 |  |  | COCCOc1cc2ncnc(Sc3cccc(NC(=O)Nc4cccc(C(C)(C)C#N)c4)c3)c2cc1OC [Ex 281, 1-(3-(2-cyanopropan-2-yl)phenyl)-3-(3-(6-methoxy-7-(2-methoxyethoxy)quinazolin-4-ylthio)phenyl)urea] | > 1000 | < 250 | 250 to 500 | < 250 | < 250
9 | < 250 | > 1000 | COc1cc2ncnc(Sc3cccc(NC(=O)Nc4cc(C(C)(C)C)nn4-c4cccc(Cl)c4)c3)c2cc1OC [Ex 364, 1-(3-tert-butyl-1-(3-chlorophenyl)-1H-pyrazol-5-yl)-3-(3-(6,7-dimethoxyquinazolin-4-ylthio)phenyl)urea] |  | 500 to 1000 | < 250 |  | 
10 | < 250 | < 250 | COc1cc2ncnc(Oc3cccc(NC(=O)Nc4cc(C(C)(C)C(F)(F)F)on4)c3F)c2cc1OC [Ex 265, 1-(3-(6,7-dimethoxyquinazolin-4-yloxy)-2-fluorophenyl)-3-(5-(1,1,1-trifluoro-2-methylpropan-2-yl)isoxazol-3-yl)urea] | 250 to 500 | 250 to 500 | < 250 |  | 
11 | < 250 | < 250 | COCCOc1cc2ncnc(Oc3cccc(NC(=O)Nc4cc(C(C)(C)F)no4)c3)c2cc1OC [Ex 218, 1-(3-(2-fluoropropan-2-yl)isoxazol-5-yl)-3-(3-(6-methoxy-7-(2-methoxyethoxy)quinazolin-4-yloxy)phenyl)urea] | > 1000 | 250 to 500 | 250 to 500 |  | 
12 |  |  | COCCOc1cc2ncnc(Oc3cccc(NC(=O)Nc4cc(C(C)(C)COC)on4)c3)c2cc1OC [Ex 217, 1-(5-(1-methoxy-2-methylpropan-2-yl)isoxazol-3-yl)-3-(3-(6-methoxy-7-(2-methoxyethoxy)quinazolin-4-yloxy)phenyl)urea] | > 1000 | 250 to 500 | 250 to 500 | < 250 | 250 to 500
13 |  |  | COc1cc2ncnc(Oc3cccc(NC(=O)Nc4cc(C(C)(C)C#N)no4)c3)c2cc1OC [Ex 125, 1-(3-(2-cyanopropan-2-yl)isoxazol-5-yl)-3-(3-(6,7-dimethoxyquinazolin-4-yloxy)phenyl)urea] | > 1000 | 250 to 500 | 250 to 500 | < 250 | 250 to 500
14 |  |  | COCCOc1cc2ncnc(Oc3cccc(NC(=O)Nc4cc(C(F)(F)F)nn4-c4ccccc4)c3)c2cc1OC [Ex 221, 1-{3-[6-methoxy-7-(2-methoxyethoxy)quinazolin-4-yloxy]phenyl}-3-[1-phenyl-3-(trifluoromethyl)-1H-pyrazol-5-yl]urea] | 500 to 1000 | > 1000 | 250 to 500 | 250 to 500 | > 1000
15 |  |  | COCCOc1cc2ncnc(Oc3cccc(NC(=O)Nc4ccc(C(F)(F)F)c(F)c4)c3)c2cc1OC [Ex 222, 1-(3-fluoro-4-(trifluoromethyl)phenyl)-3-(3-(6-methoxy-7-(2-methoxyethoxy)quinazolin-4-yloxy)phenyl)urea] | > 1000 | 500 to 1000 | > 1000 | 250 to 500 | 250 to 500
16 |  |  | COc1cc(NC(=O)Nc2cccc(Sc3ncnc4cc(OC)c(OC)cc34)c2)cc(C(F)(F)F)c1 [Ex 115, 1-(3-(6,7-dimethoxyquinazolin-4-ylthio)phenyl)-3-(3-methoxy-5-(trifluoromethyl)phenyl)urea] | > 1000 | 500 to 1000 | > 1000 | 250 to 500 | 250 to 500
17 |  |  | CCOC(C)(C)c1cc(NC(=O)Nc2cccc(Sc3ncnc4cc(OC)c(OC)cc34)c2)n(-c2ccccc2)n1 [Ex 197, 1-[3-(6,7-dimethoxyquinazolin-4-ylthio)phenyl]-3-[3-(2-ethoxypropan-2-yl)-1-phenyl-1H-pyrazol-5-yl]urea] | > 1000 | > 1000 | 250 to 500 | 250 to 500 | > 1000
18 |  |  | COc1cc2ncnc(Sc3cccc(NC(=O)Nc4ccc(C(F)(F)F)cc4)c3)c2cc1OC [Ex 184, 1-(3-(6,7-dimethoxyquinazolin-4-ylthio)phenyl)-3-(4-(trifluoromethyl)phenyl)urea] | 500 to 1000 | 500 to 1000 | 250 to 500 | 250 to 500 | 250 to 500
19 |  |  | COc1cc2ncnc(Oc3cccc(NC(=O)Nc4cc(C(C)(CF)CF)no4)c3)c2cc1OC [Ex 159, 1-[3-(1,3-difluoro-2-methylpropan-2-yl)isoxazol-5-yl]-3-[3-(6,7-dimethoxyquinazolin-4-yloxy]phenyl)urea] | > 1000 | 500 to 1000 | 250 to 500 | 250 to 500 | 500 to 1000
20 |  |  | COc1cc2ncnc(Sc3cccc(NC(=O)Nc4cc(C(C)(C)C(F)(F)F)on4)c3)c2cc1OC [Ex 261, 1-(3-(6,7-dimethoxyquinazolin-4-ylthio)phenyl)-3-(5-(1,1,1-trifluoro-2-methylpropan-2-yl)isoxazol-3-yl)urea] | > 1000 | 250 to 500 | < 250 | < 250 | < 250
21 | < 250 | > 1000 | COc1cc2ncnc(Oc3cccc(NC(=O)Nc4cc(C(C)(C)C)nn4-c4cccc(Cl)c4)c3)c2cc1OC [Ex 363, 1-(3-tert-butyl-1-(3-chlorophenyl)-1H-pyrazol-5-yl)-3-(3-(6,7-dimethoxyquinazolin-4-yloxy)phenyl)urea] |  | 250 to 500 | < 250 |  | 
22 |  |  | COc1cc2ncnc(Oc3cccc(NC(=O)Nc4ccc(C(F)(F)F)c(F)c4)c3)c2cc1OC [Ex 150, 1-(3-(6,7-dimethoxyquinazolin-4-yloxy)phenyl)-3-(3-fluoro-4-(trifluoromethyl)phenyl)urea] | > 1000 | 500 to 1000 | > 1000 | 250 to 500 | 500 to 1000

Row | SMILES | Kd (RAF kinases [1]) [nM] | Kd (RAF kinases [2]) [nM] | EC50 (A375 cells) [nM] | Kd (RAF kinases [3]) [nM] | IC50 [4] [nM] | Kd (RAF kinases [5]) [nM] | Kd (RAF kinases [6]) [nM]
23 | COc1cc2ncnc(Oc3ccc(Cl)c(NC(=O)Nc4cc(C(C)(C)C)on4)c3)c2cc1OC [Ex 299, 1-(5-tert-butylisoxazol-3-yl)-3-(2-chloro-5-(6,7-dimethoxyquinazolin-4-yloxy)phenyl)urea] | < 250 | < 250 |  | 250 to 500 | < 250 |  | 
24 | COc1cc2ncnc(Oc3cccc(NC(=O)Nc4cc(C(C)(C)C(F)(F)F)on4)c3)c2cc1OC [Ex 259, 1-(3-(6,7-dimethoxyquinazolin-4-yloxy)phenyl)-3-(5-(1,1,1-trifluoro-2-methylpropan-2-yl)isoxazol-3-yl)urea] | < 250 | < 250 | < 250 | < 250 | < 250 |  | 
25 | COc1cc2ncnc(Oc3cccc(NC(=O)Nc4cc(C(C)(C)C)nn4Cc4ccccc4)c3)c2cc1OC [Ex 357, 1-(1-benzyl-3-tert-butyl-1H-pyrazol-5-yl)-3-(3-(6,7-dimethoxyquinazolin-4-yloxy)phenyl)urea] | < 250 | > 1000 | > 1000 | 500 to 1000 | 250 to 500 |  | 
